Source: publication PMC11434840, “Discovery of Benzopyrone-Based Candidates as Potential Antimicrobial and Photochemotherapeutic Agents through Inhibition of DNA Gyrase Enzyme B: Design, Synthesis, In Vitro and In Silico Evaluation” (Pharmaceuticals, 2024)
Like-named read-outs stand apart in the source and are kept apart here.

Columns and labels:
[1] = tested on: Escherichia coli ATCC 25922; test: Antimicrobial agar cup-plate assay, E. coli; assay type: cell-based; set-up: key to Inhibition Zone (mm) E. coli: -: no activity; conditions: for Inhibition Zone (mm) E. coli: 0.1 mL of compound in DMF, overnight incubation, mean ± SD, at least three experiments
Protocol: (§1) The antimicrobial activity of all newly synthesized compounds was determined using the agar cup-plate method using the Hi-Media agar medium. Xanthotoxin, tobramycin, and amphotericin B were used as reference drugs. All newly synthesized compounds were tested against two strains of Gram-positive bacteria (Bacillus subtilis ATCC 14579 and Staphylococcus aureus ATCC 25923), Gram-negative bacteria (Escherichia coli ATCC 25922), and yeast (Candida albicans ATCC 10231).
(§2) The nutrient agar medium consists of 0.3% of beef extract, 0.5% of peptone, 0.1% dipotassium hydrogen phosphate, and 1.5% agar. Broth cultures of the organisms were prepared by incubating slant agar seeded with the organisms overnight.
(§3) The prepared broth culture (0.02 mL) was carefully added to sterile Petri dishes. Then, 10 mL of the liquefied nutrient agar medium was poured into each dish, mixed uniformly, and allowed to solidify. Using a sterilized cork borer, cups (9 mm) were scooped out of the agar media contained in the Petri dishes. Each test compound (50 mg) was dissolved in 1 mL DMF (50 mg mL^−1), which was used as a stock solution to carry out the twofold dilution technique. A fixed volume (0.1 mL) of the tested compounds dissolved in dimethylformamide (DMF) was added. Each plate contained a cup filled with DMF to disregard the effect of solvent. Additionally, two other cups were filled with tobramycin and xanthotoxin being used as reference drugs. The plates were incubated overnight to examine the antimicrobial activity. Zones of inhibition obtained by each test compound were measured in millimeters and the results are recorded in Table 2.
(§4) GraphPad Prism-version 5 (GraphPad Software, Inc., La Jolla, CA, USA) was used for statistical analysis.

[2] = tested on: Staphylococcus aureus ATCC 25923; test: Antimicrobial agar cup-plate assay, S. aureus; assay type: cell-based; set-up: key: -: no activity; conditions: 0.1 mL of compound in DMF, overnight incubation, mean ± SD, at least three experiments
Protocol: as §1, §2, §3, §4

[3] = tested on: Bacillus subtilis ATCC 14579; test: Antimicrobial agar cup-plate assay, B. subtilis; assay type: cell-based; set-up: key: -: no activity; conditions: 0.1 mL of compound in DMF, overnight incubation, mean ± SD, at least three experiments
Protocol: as §1, §2, §3, §4

[4] = tested on: Candida albicans ATCC 10231; test: Antimicrobial agar cup-plate assay, C. albicans; assay type: cell-based; set-up: key to Inhibition Zone (mm) C. albicans: -: no activity; conditions: for Inhibition Zone (mm) C. albicans: 0.1 mL of compound in DMF, overnight incubation, mean ± SD, at least three experiments
Protocol: as §1, §2, §3, §4

[5] = tested on: Bacillus subtilis ATCC 14579; test: Photosensitizing assay (MIC before and after UV irradiation, agar cup-plate); assay type: cell-based; set-up: key to MIC (mg mL^−1) Control / MIC (mg mL^−1) Test / MIC (mM) Control / MIC (mM) Test: -: no activity; conditions: B. subtilis; for MIC: Bacillus subtilis, ATCC14579, light or radiation study
Protocol: The photosensitizing activity was determined using the agar cup-plate method (described in Section 2.3) with Hi-Media agar medium. The antibacterial activity against Bacillus subtilis ATCC 14579 was measured before and after exposure to UV lamp (365 nm). The diameters of the inhibition zones were measured in mm and the results were compared with xanthotoxin. The tested organism used was Bacillus subtilis.
For the photosensitizing activity, xanthotoxin was used as a reference drug and DMF as a negative control. The minimum inhibitory concentrations (MIC) were determined using the agar cup-plate method. Each test compound (50 mg) was dissolved in 1 mL DMF (50 mg mL^−1), which was used as a stock solution to carry out the twofold dilution technique. The sample size for all the compounds was adjusted to 0.1 mL. The solution of the test compound (0.1 mL) was added to the cups. The plates were divided into test plates and duplicate plates. Before irradiation, the test plates were incubated in the dark at 37 °C for 3 h to permit the diffusion of the tested compounds through the agar layer. The duplicate plates were incubated overnight and used as a control for the determination of the antibacterial activity. The covers were removed from the test plates, and the dishes were exposed to UV lamp (365 nm) for 20 min. After irradiation, the plates were left overnight in the dark at 37 °C. MIC, the least concentration preventing visible bacterial growth, was determined in both the control and test, indicating the antibacterial and photosensitizing activity of the tested compounds, respectively.
To evaluate the significance of the difference in the results, each experiment was repeated at least three times. […] GraphPad Prism-version 5 (GraphPad Software, Inc., La Jolla, CA, USA) was used to perform statistical analysis of the results.

[6] = 20 min, after irradiation with UV lamp (365 nm) for 20 min (photosensitizing activity), 100 μL per cup, read-out: MIC (mg mL^−1) Test
[7] = 20 min, after irradiation with UV lamp (365 nm) for 20 min (photosensitizing activity), read-out: MIC (mM) Test
[8] = without irradiation (antibacterial activity), 100 μL per cup, read-out: MIC (mg mL^−1) Control
[9] = without irradiation (antibacterial activity), read-out: MIC (mM) Control
[10] = after irradiation with UV lamp (365 nm) for 20 min (photosensitizing activity)
[11] = after irradiation with UV lamp (365 nm) for 20 min (photosensitizing activity), 100 μL per cup
[12] = without irradiation (antibacterial activity)
[13] = without irradiation (antibacterial activity), 100 μL per cup

Structure (SMILES) | Inhibition Zone (mm) E. coli [1] | melting point [°C] | Inhibition Zone (mm) S. aureus [2] | Inhibition Zone (mm) B. subtilis [3] | Inhibition Zone (mm) C. albicans [4] | MIC [5, 6] [µg/mL] | MIC [5, 7] [mM] | MIC [5, 8] [µg/mL] | MIC [5, 9] [mM] | MIC (mM) Test [5, 10] | MIC (mg mL^−1) Test [5, 11] | MIC (mM) Control [5, 12] | MIC (mg mL^−1) Control [5, 13] | antifungal activity against C. albicans (in words) [4] | antibacterial activity against E. coli (in words) [1]
CCc1cc2c(C)cc(=O)oc2cc1OCC(=O)c1ccc(OC)cc1 [Compound 7c, 6-Ethyl-4-methyl-7-(4-methoxyphenacyloxy)-2H-1-benzopyran-2-one] | 15 ± 1.414 mm | 162 to 164 | - | 10 ± 1.414 mm | - | 3120 | 8.87 | 12500 | 35.5 |  |  |  |  |  | 
CCc1cc2c(C)cc(=O)oc2cc1OCC(=O)c1ccc(C)cc1 [Compound 7b, 6-Ethyl-4-methyl-7-(4-methylphenacyloxy)-2H-1-benzopyran-2-one] | 20 ± 1.414 mm | 136 to 139 | 24 ± 1.414 mm | 13 ± 1.414 mm | - | 190 | 0.56 | 1500 | 4.46 |  |  |  |  |  | 
CCc1cc2c(-c3ccccc3)cc(=O)oc2cc1OCC(=O)c1ccc(OC)cc1 [Compound 7f, 6-Ethyl-7-(4-methoxyphenacyloxy)-4-phenyl-2H-1-benzopyran-2-one] | 23 ± 0.8165 mm | 183 to 185 | - | - | 16 ± 0.8165 mm |  |  |  |  | - | - | - | - |  | 
CCc1cc2c(-c3ccccc3)cc(=O)oc2c2c3c(oc12)CCCC3 [Compound 5b, 6-Ethyl-4-phenyl-8,9,10,11-tetrahydro-2H-benzofuro[2,3-h]benzopyran-2-one] | - | 108 to 110 | 26 ± 0.8165 mm | 22 ± 1.414 mm | - | 780 | 2.26 | 3120 | 9.07 |  |  |  |  | inactive | 
CCc1cc2c(-c3ccccc3)cc(=O)oc2cc1OC(C)C(C)=O (stereo not drawn) [Compound 2b, 6-Ethyl-7-(3-oxobutan-2-yloxy)-4-phenyl-2H-1-benzopyran-2-one] | - | 100 to 102 | 22 ± 1.414 mm | 14 ± 0.8165 mm | 15 ± 1.414 mm | 6250 | 18.6 | 6250 | 18.6 |  |  |  |  |  | inactive
CCc1cc2c(C)cc(=O)oc2cc1OC1CCCCC1=O (stereo not drawn) [Compound 4a, 6-Ethyl-4-methyl-7-(2-oxocyclohexyloxy)-2H-1-benzopyran-2-one] | - | 160 to 162 | 24 ± 1.414 mm | 15 ± 0.8165 mm | 18 ± 1.414 mm | 780 | 2.6 | 3120 | 10.4 |  |  |  |  |  | inactive
CCc1cc2c(C)cc(=O)oc2c2c1oc1ccccc12 [Compound 6a, 6-Ethyl-4-methyl-2H-benzofuro[2,3-h]benzopyran-2-one] | 23 ± 1.414 mm | 120 to 122 | 30 ± 1.414 mm | 20 ± 1.414 mm | 21 ± 0.8165 mm | 390 | 1.4 | 3120 | 11.2 |  |  |  |  |  | 
CCc1cc2c(C)cc(=O)oc2c2c3c(oc12)CCCC3 [Compound 5a, 6-Ethyl-4-methyl-8,9,10,11-tetrahydro-2H-benzofuro[2,3-h]benzopyran-2-one] | 16 ± 1.414 mm |  | 30 ± 0.8165 mm | 22 ± 0.8165 mm | 18 ± 0.8165 mm | 780 | 2.76 | 3120 | 11.1 |  |  |  |  |  | 
CCc1cc2c(-c3ccccc3)cc(=O)oc2cc1OC1CCCCC1=O (stereo not drawn) [Compound 4b, 6-Ethyl-7-(2-oxocyclohexyloxy)-4-phenyl-2H-1-benzopyran-2-one] | - | 150 to 152 | 29 ± 0.8165 mm | 17 ± 0.8165 mm | 14 ± 1.414 mm | 3120 | 8.62 | 3120 | 8.62 |  |  |  |  |  | inactive
CCc1cc2c(C)cc(=O)oc2cc1OCC(=O)c1ccccc1 [Compound 7a, 6-Ethyl-4-methyl-7-phenacyloxy-2H-1-benzopyran-2-one] | 20 ± 0.8165 mm | 165 to 166 | 28 ± 1.414 mm | 12 ± 1.414 mm | - | 1500 | 4.65 | 6250 | 19.4 |  |  |  |  |  | 
CCc1cc2c(C)cc(=O)oc2cc1OC(C)C(C)=O (stereo not drawn) [Compound 2a, 6-Ethyl-4-methyl-7-(3-oxobutan-2-yloxy)-2H-1-benzopyran-2-one] | - | 95 to 97 | 14 ± 1.414 mm | 15 ± 1.414 mm | 11 ± 0.8165 mm | 6250 | 22.8 | 6250 | 22.8 |  |  |  |  |  | inactive
C[C@@H]1[C@H](O)[C@@H](C)/C=C/C=C/C=C/C=C/C=C/C=C/C=C/[C@H](O[C@@H]2O[C@H](C)[C@@H](O)[C@H](N)[C@@H]2O)C[C@@H]2O[C@](O)(C[C@@H](O)C[C@@H](O)[C@H](O)CC[C@@H](O)C[C@@H](O)CC(=O)O[C@H]1C)C[C@H](O)[C@H]2C(=O)O [Amphotercin B, amphotericin B, reference compound] |  |  |  |  | 14 ± 1.414 mm |  |  |  |  |  |  |  |  |  | 
NC[C@H]1O[C@H](O[C@H]2[C@H](O)[C@@H](O[C@H]3O[C@H](CO)[C@@H](O)[C@H](N)[C@H]3O)[C@H](N)C[C@@H]2N)[C@H](N)C[C@@H]1O [Tobramycin, reference compound] | 20 ± 1.414 mm |  | 21 ± 0.8165 mm |  |  |  |  |  |  |  |  |  |  |  | 
COc1c2occc2cc2ccc(=O)oc12 [Xanthotoxin, reference compound] | 25 ± 0.8165 mm |  | - | 13 ± 0.8165 mm | 15 ± 0.8165 mm |  |  |  |  | 6.94 mM | 1500 µg/mL | 57.82 mM | 12500 µg/mL |  | 
